What all share (settings): pH 7.4; 25 °C
The target of one assay is T1, Adenosine receptor A1 (Homo sapiens, UniProt P30542).
T1 sequence (P30542 whole entry): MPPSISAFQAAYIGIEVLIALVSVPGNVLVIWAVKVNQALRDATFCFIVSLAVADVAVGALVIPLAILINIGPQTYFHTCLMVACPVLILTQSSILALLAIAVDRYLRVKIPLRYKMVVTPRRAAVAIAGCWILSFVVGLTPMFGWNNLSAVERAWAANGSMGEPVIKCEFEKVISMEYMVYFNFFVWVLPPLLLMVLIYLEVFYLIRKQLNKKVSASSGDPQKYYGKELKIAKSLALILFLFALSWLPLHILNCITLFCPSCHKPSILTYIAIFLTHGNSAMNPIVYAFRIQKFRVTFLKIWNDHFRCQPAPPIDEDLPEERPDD
Put plainly: A1 Adenosine Receptor Binding Assay. On the procedure: Aliquots of cell membranes (30 ug proteins) were incubated at 25 °C for 180 min in 500 uL of binding buffer (50 mM Tris-HCl, 2 mM MgCl2, 2 units/mL ADA, pH 7.4) containing [3H]DPCPX (3 nM) and six different concentrations of the tested compounds. Non-specific binding was determined in the presence of 50 µM R-PIA. The dissociation constant (Kd) of [3H]DPCPX in human A1 AR CHO cell membranes was 3 nM.

The next assay has as its target Adenosine receptor A2a (Homo sapiens, UniProt P29274). Put plainly: A2A Adenosine Receptor Binding Assay. On the procedure: Aliquots of cell membranes (30 ug) were incubated at 25 °C for 90 min in 500 uL of binding buffer (50 mM Tris-HCl, 2 mm MgCl2, 2 units/mL ADA, pH 7.4) in the presence of 30 nM of [3H]NECA and six different concentrations of the tested compounds. Non-specific binding was determined in the presence of 100 uM R-PIA.

In a further assay the target is T2, Adenosine receptor A3 (Homo sapiens, UniProt P0DMS8).
T2 sequence (P0DMS8 whole entry): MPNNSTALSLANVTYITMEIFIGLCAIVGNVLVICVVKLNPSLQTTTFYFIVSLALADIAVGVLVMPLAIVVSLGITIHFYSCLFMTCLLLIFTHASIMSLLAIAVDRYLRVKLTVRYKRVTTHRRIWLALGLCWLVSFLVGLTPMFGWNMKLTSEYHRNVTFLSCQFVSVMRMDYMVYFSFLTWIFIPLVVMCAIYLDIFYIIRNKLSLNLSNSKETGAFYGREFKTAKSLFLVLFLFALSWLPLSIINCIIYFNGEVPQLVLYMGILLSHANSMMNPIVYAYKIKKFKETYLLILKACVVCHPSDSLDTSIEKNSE
Put plainly: A3 Adenosine Receptor Binding Assay. On the procedure:
Aliquots of cell membranes (90 ug) were incubated at 25 °C for 180 min in 500 uL of binding buffer (50 mM Tris-HCl, 5 mM MgCl2, 1 mM EDTA, 2 units/mL ADA, pH 7.4) in the presence of 30 nm [3H]NECA and six different concentrations of the tested compounds. Non-specific binding was determined in the presence of 100 uM R-PIA.

pEC50, pKi: −log10 of the molar value.

Sequence of Adenosine receptor A2a (P29274 whole entry): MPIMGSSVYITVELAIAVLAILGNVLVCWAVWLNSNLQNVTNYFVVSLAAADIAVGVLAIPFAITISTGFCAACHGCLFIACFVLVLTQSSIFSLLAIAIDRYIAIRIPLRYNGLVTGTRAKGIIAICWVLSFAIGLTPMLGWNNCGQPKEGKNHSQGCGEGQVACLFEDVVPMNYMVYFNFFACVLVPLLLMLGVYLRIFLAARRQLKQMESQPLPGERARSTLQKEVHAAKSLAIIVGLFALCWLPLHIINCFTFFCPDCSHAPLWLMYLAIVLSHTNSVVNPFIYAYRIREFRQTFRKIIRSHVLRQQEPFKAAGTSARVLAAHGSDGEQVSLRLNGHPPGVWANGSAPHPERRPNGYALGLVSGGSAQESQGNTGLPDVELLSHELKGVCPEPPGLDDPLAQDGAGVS

`Nc1cc(OCc2ccccc2)nc(SCc2ccccc2)n1` [4-amino-6-alkyloxy-2-benzylthiopyrimidines (6)]: the pKi (as a rule, −log10 of the Ki, conventionally taken in molar units) on Adenosine receptor A1 was 5.92; on Adenosine receptor A2a, < 5.00; at Adenosine receptor A3, < 5.00.
Take `CC(C)COc1cc(N)nc(SCc2ccccc2)n1` [4-amino-6-alkyloxy-2-benzylthiopyrimidines (5)]: on Adenosine receptor A1, the pEC50 (commonly the negative decadic logarithm of the EC50, by convention in mol/L) is 6.06. Further, the pKi on Adenosine receptor A1 is 5.71; on Adenosine receptor A2a it was < 5.00; at Adenosine receptor A3, < 5.00.
Turning to `CCCOc1cc(N)nc(SCc2ccccc2)n1` [4-amino-6-alkyloxy-2-benzylthiopyrimidines (4)], the pEC50 on Adenosine receptor A1 was 6.31. Besides, the pKi was 5.91 on Adenosine receptor A1, < 5.00 on Adenosine receptor A2a and < 5.00 on Adenosine receptor A3.
